The record followed here is PubChem BioAssay AID2060904 (Molecular Pharmacology Branch, DTP, NCI, 2025).
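Also: spheroids exposed to compound for seven days before viability readout.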

The first assay deals with 349418-098-R-PDC complex spheroid viability. The assay can be described thus: Anticancer human tumor 349418-098-R-PDC patient-derived lung adenocarcinoma cell line growth inhibition [RAS]. Conditions: second compound 0.316 µM; first compound 0.1 µM; active compounds read low. Summed up: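 Multi-cell-type spheroids: tumor cells plus HUVEC endothelial cells and mesenchymal stem cells. RAS-pathway inhibitors were combined with targeted agents, each dosed in half-log steps down from clinical Cmax, or from 10 microM when Cmax was unknown.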
`Cc1nc(N2CCC3(CC2)COC(C)C3N)c(CO)nc1Sc1ccnc(N)c1Cl` (configuration not stated) + C=CC(=O)N1CCN(c2nc(OCC3CCCN3C)nc3c(F)c(-c4nc(N)cc(C)c4C(F)(F)F)c(Cl)cc23)C(C)C1: the viability, T/C was 89.2%.

Regarding `NC1c2ccccc2OC12CCN(c1cnc3c(N4CCCc5ncccc54)n[nH]c3n1)CC2` (configuration not stated) + C=CC(=O)N1CCN(c2nc(OCC3CCCN3C)nc3c(F)c(-c4nc(N)cc(C)c4C(F)(F)F)c(Cl)cc23)C(C)C1, the viability, T/C was 92.7%.

The assay is the same for the next values; noted with them: second compound 0.316 µM; first compound 0.316 µM; active compounds read low.
For `CCC(CC)c1cc(NC2CCC(N)C2)n2nccc2n1` (configuration not stated) + C=CC(=O)N1CCN(c2nc(OCC3CCCN3C)nc3c(F)c(-c4nc(N)cc(C)c4C(F)(F)F)c(Cl)cc23)C(C)C1, the viability, T/C was 75.7%.

On to `Cc1nc(N2CCC3(CC2)COC(C)C3N)c(CO)nc1Sc1ccnc(N)c1Cl` (configuration not stated) + C=CC(=O)N1CCN(c2nc(OCC3CCCN3C)nc3c(F)c(-c4nc(N)cc(C)c4C(F)(F)F)c(Cl)cc23)C(C)C1, for which the viability, T/C is 73.4%.

As for `NC1c2ccccc2OC12CCN(c1cnc3c(N4CCCc5ncccc54)n[nH]c3n1)CC2` (configuration not stated) + C=CC(=O)N1CCN(c2nc(OCC3CCCN3C)nc3c(F)c(-c4nc(N)cc(C)c4C(F)(F)F)c(Cl)cc23)C(C)C1, the viability, T/C was 92.1%.

The same assay, now with this note: second compound 0.316 µM; first compound 1 µM; active compounds read low.
Regarding `CCC(CC)c1cc(NC2CCC(N)C2)n2nccc2n1` (configuration not stated) + C=CC(=O)N1CCN(c2nc(OCC3CCCN3C)nc3c(F)c(-c4nc(N)cc(C)c4C(F)(F)F)c(Cl)cc23)C(C)C1, the viability, T/C is 31.7%.

With `Cc1nc(N2CCC3(CC2)COC(C)C3N)c(CO)nc1Sc1ccnc(N)c1Cl` (configuration not stated) + C=CC(=O)N1CCN(c2nc(OCC3CCCN3C)nc3c(F)c(-c4nc(N)cc(C)c4C(F)(F)F)c(Cl)cc23)C(C)C1, the viability, T/C is 81.7%.

For the compound `NC1c2ccccc2OC12CCN(c1cnc3c(N4CCCc5ncccc54)n[nH]c3n1)CC2` (configuration not stated) + C=CC(=O)N1CCN(c2nc(OCC3CCCN3C)nc3c(F)c(-c4nc(N)cc(C)c4C(F)(F)F)c(Cl)cc23)C(C)C1, the viability, T/C was 91.1%.

The same assay, now with this note: second compound 0.316 µM; first compound 3.16 µM; active compounds read low.
Turning to `CCC(CC)c1cc(NC2CCC(N)C2)n2nccc2n1` (configuration not stated) + C=CC(=O)N1CCN(c2nc(OCC3CCCN3C)nc3c(F)c(-c4nc(N)cc(C)c4C(F)(F)F)c(Cl)cc23)C(C)C1, the viability, T/C was 3.42%.

As to `Cc1nc(N2CCC3(CC2)COC(C)C3N)c(CO)nc1Sc1ccnc(N)c1Cl` (configuration not stated) + C=CC(=O)N1CCN(c2nc(OCC3CCCN3C)nc3c(F)c(-c4nc(N)cc(C)c4C(F)(F)F)c(Cl)cc23)C(C)C1, the viability, T/C was 86%.

As for `NC1c2ccccc2OC12CCN(c1cnc3c(N4CCCc5ncccc54)n[nH]c3n1)CC2` (configuration not stated) + C=CC(=O)N1CCN(c2nc(OCC3CCCN3C)nc3c(F)c(-c4nc(N)cc(C)c4C(F)(F)F)c(Cl)cc23)C(C)C1, the viability, T/C is 100%.

Still in this assay, the particulars now being: second compound 0.316 µM; first compound 10 µM; active compounds read low.
On to `CCC(CC)c1cc(NC2CCC(N)C2)n2nccc2n1` (configuration not stated) + C=CC(=O)N1CCN(c2nc(OCC3CCCN3C)nc3c(F)c(-c4nc(N)cc(C)c4C(F)(F)F)c(Cl)cc23)C(C)C1, for which the viability, T/C was 2.54%.

As to `Cc1nc(N2CCC3(CC2)COC(C)C3N)c(CO)nc1Sc1ccnc(N)c1Cl` (configuration not stated) + C=CC(=O)N1CCN(c2nc(OCC3CCCN3C)nc3c(F)c(-c4nc(N)cc(C)c4C(F)(F)F)c(Cl)cc23)C(C)C1, the viability, T/C is 87.1%.

Regarding `NC1c2ccccc2OC12CCN(c1cnc3c(N4CCCc5ncccc54)n[nH]c3n1)CC2` (configuration not stated) + C=CC(=O)N1CCN(c2nc(OCC3CCCN3C)nc3c(F)c(-c4nc(N)cc(C)c4C(F)(F)F)c(Cl)cc23)C(C)C1, the viability, T/C was 64%.

Still in this assay, the particulars now being: second compound 1 µM; first compound 0.0316 µM; active compounds read low.
In the case of `CCC(CC)c1cc(NC2CCC(N)C2)n2nccc2n1` (configuration not stated) + C=CC(=O)N1CCN(c2nc(OCC3CCCN3C)nc3c(F)c(-c4nc(N)cc(C)c4C(F)(F)F)c(Cl)cc23)C(C)C1, the viability, T/C is 78.8%.

On to `Cc1nc(N2CCC3(CC2)COC(C)C3N)c(CO)nc1Sc1ccnc(N)c1Cl` (configuration not stated) + C=CC(=O)N1CCN(c2nc(OCC3CCCN3C)nc3c(F)c(-c4nc(N)cc(C)c4C(F)(F)F)c(Cl)cc23)C(C)C1, for which the viability, T/C is 105%.

On to `NC1c2ccccc2OC12CCN(c1cnc3c(N4CCCc5ncccc54)n[nH]c3n1)CC2` (configuration not stated) + C=CC(=O)N1CCN(c2nc(OCC3CCCN3C)nc3c(F)c(-c4nc(N)cc(C)c4C(F)(F)F)c(Cl)cc23)C(C)C1, for which the viability, T/C is 64.5%.

The assay is the same for the next values; noted with them: second compound 1 µM; first compound 0.1 µM; active compounds read low.
For `CCC(CC)c1cc(NC2CCC(N)C2)n2nccc2n1` (configuration not stated) + C=CC(=O)N1CCN(c2nc(OCC3CCCN3C)nc3c(F)c(-c4nc(N)cc(C)c4C(F)(F)F)c(Cl)cc23)C(C)C1, the viability, T/C is 71.9%.

Take `Cc1nc(N2CCC3(CC2)COC(C)C3N)c(CO)nc1Sc1ccnc(N)c1Cl` (configuration not stated) + C=CC(=O)N1CCN(c2nc(OCC3CCCN3C)nc3c(F)c(-c4nc(N)cc(C)c4C(F)(F)F)c(Cl)cc23)C(C)C1: the viability, T/C is 76.5%.

As to `NC1c2ccccc2OC12CCN(c1cnc3c(N4CCCc5ncccc54)n[nH]c3n1)CC2` (configuration not stated) + C=CC(=O)N1CCN(c2nc(OCC3CCCN3C)nc3c(F)c(-c4nc(N)cc(C)c4C(F)(F)F)c(Cl)cc23)C(C)C1, the viability, T/C is 89.8%.

Staying with this assay, now noted: second compound 1 µM; first compound 0.316 µM; active compounds read low.
On to `CCC(CC)c1cc(NC2CCC(N)C2)n2nccc2n1` (configuration not stated) + C=CC(=O)N1CCN(c2nc(OCC3CCCN3C)nc3c(F)c(-c4nc(N)cc(C)c4C(F)(F)F)c(Cl)cc23)C(C)C1, for which the viability, T/C was 85.4%.

`Cc1nc(N2CCC3(CC2)COC(C)C3N)c(CO)nc1Sc1ccnc(N)c1Cl` (configuration not stated) + C=CC(=O)N1CCN(c2nc(OCC3CCCN3C)nc3c(F)c(-c4nc(N)cc(C)c4C(F)(F)F)c(Cl)cc23)C(C)C1: the viability, T/C is 95.8%.

On to `NC1c2ccccc2OC12CCN(c1cnc3c(N4CCCc5ncccc54)n[nH]c3n1)CC2` (configuration not stated) + C=CC(=O)N1CCN(c2nc(OCC3CCCN3C)nc3c(F)c(-c4nc(N)cc(C)c4C(F)(F)F)c(Cl)cc23)C(C)C1, for which the viability, T/C is 74%.

The same assay, now with this note: second compound 1 µM; first compound 1 µM; active compounds read low.
Consider `CCC(CC)c1cc(NC2CCC(N)C2)n2nccc2n1` (configuration not stated) + C=CC(=O)N1CCN(c2nc(OCC3CCCN3C)nc3c(F)c(-c4nc(N)cc(C)c4C(F)(F)F)c(Cl)cc23)C(C)C1, for which the viability, T/C is 54.3%.

`Cc1nc(N2CCC3(CC2)COC(C)C3N)c(CO)nc1Sc1ccnc(N)c1Cl` (configuration not stated) + C=CC(=O)N1CCN(c2nc(OCC3CCCN3C)nc3c(F)c(-c4nc(N)cc(C)c4C(F)(F)F)c(Cl)cc23)C(C)C1: the viability, T/C is 108%.

With `NC1c2ccccc2OC12CCN(c1cnc3c(N4CCCc5ncccc54)n[nH]c3n1)CC2` (configuration not stated) + C=CC(=O)N1CCN(c2nc(OCC3CCCN3C)nc3c(F)c(-c4nc(N)cc(C)c4C(F)(F)F)c(Cl)cc23)C(C)C1, the viability, T/C is 83.7%.

The assay is the same for the next values; noted with them: second compound 1 µM; first compound 3.16 µM; active compounds read low.
For the compound `CCC(CC)c1cc(NC2CCC(N)C2)n2nccc2n1` (configuration not stated) + C=CC(=O)N1CCN(c2nc(OCC3CCCN3C)nc3c(F)c(-c4nc(N)cc(C)c4C(F)(F)F)c(Cl)cc23)C(C)C1, the viability, T/C was 3.58%.

In the case of `Cc1nc(N2CCC3(CC2)COC(C)C3N)c(CO)nc1Sc1ccnc(N)c1Cl` (configuration not stated) + C=CC(=O)N1CCN(c2nc(OCC3CCCN3C)nc3c(F)c(-c4nc(N)cc(C)c4C(F)(F)F)c(Cl)cc23)C(C)C1, the viability, T/C was 88.1%.

For `NC1c2ccccc2OC12CCN(c1cnc3c(N4CCCc5ncccc54)n[nH]c3n1)CC2` (configuration not stated) + C=CC(=O)N1CCN(c2nc(OCC3CCCN3C)nc3c(F)c(-c4nc(N)cc(C)c4C(F)(F)F)c(Cl)cc23)C(C)C1, the viability, T/C was 71.2%.

The assay is the same for the next values; noted with them: second compound 1 µM; first compound 10 µM; active compounds read low.
Consider `CCC(CC)c1cc(NC2CCC(N)C2)n2nccc2n1` (configuration not stated) + C=CC(=O)N1CCN(c2nc(OCC3CCCN3C)nc3c(F)c(-c4nc(N)cc(C)c4C(F)(F)F)c(Cl)cc23)C(C)C1, for which the viability, T/C was 4.86%.

Regarding `Cc1nc(N2CCC3(CC2)COC(C)C3N)c(CO)nc1Sc1ccnc(N)c1Cl` (configuration not stated) + C=CC(=O)N1CCN(c2nc(OCC3CCCN3C)nc3c(F)c(-c4nc(N)cc(C)c4C(F)(F)F)c(Cl)cc23)C(C)C1, the viability, T/C was 105%.

On to `NC1c2ccccc2OC12CCN(c1cnc3c(N4CCCc5ncccc54)n[nH]c3n1)CC2` (configuration not stated) + C=CC(=O)N1CCN(c2nc(OCC3CCCN3C)nc3c(F)c(-c4nc(N)cc(C)c4C(F)(F)F)c(Cl)cc23)C(C)C1, for which the viability, T/C is 69.1%.

In general, viability, T/C refers to the ratio of treated to control.
